Calls of active or inactive are those of the source. The calls are words filed in the database; no cut-off is given here.
How the values were obtained:
Mus musculus [1] = assay: Compound was tested for analgesic activity in mice after intraperitoneal administration at a dose of 10 ug/kg; Significant; format: functional, organism-based
Mus musculus [2] = assay: Dose of compound that caused analgesic activity in mice after intraperitoneal administration; format: functional
[3] = Lethal dose determined in Mice; format: toxicity; conditions: mouse, in vivo
Mus musculus [4] = assay: Compound was tested for analgesic activity in mice after intraperitoneal administration at a dose of 10 ug/kg; less potent; format: functional, organism-based

Clc1ccc(C2CC3CCC2N3)cn1 (racemic)
Activity (Mus musculus [1]): Active

Clc1ccc(C2CC3CCCC2N3)cn1 (centres undefined) [HOMOEPIBATIDINE]
Dose (Mus musculus [2]): 0.04 mg/kg | LD50 [3]: 10 mg/kg

Clc1ccc(C2CCNC2)cn1 (centres undefined)
Activity (Mus musculus [4]): less potent

— ChEMBL document CHEMBL1128964, “Synthesis and analgesic activity of Epibatidine analogues” (Bioorg Med Chem Lett, 1996)
